Reference: paper PMC5428509, “Irreversible inhibition of BTK kinase by a novel highly selective inhibitor CHMFL-BTK-11 suppresses inflammatory response in rheumatoid arthritis model” (Scientific Reports, 2017)

How the values were obtained:
Experiment in all cases: biochemical
Parameters in all cases: KinomeScan competition binding panel (DiscoveRx), percent of control at 1 uM
Conditions in all cases: read-out: Percent Control
AURKB = AURKB (Homo sapiens, UniProt Q96GD4)
In short: (§1)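 KinomeScan technology used to profile binding across a panel of 456 kinases and mutants.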

AXL = AXL (Homo sapiens, UniProt P30530)
In short: as §1

CTK = biological target: T1, CTK (Homo sapiens, UniProt P42679)
T1 construct: gene MATK
In short: as §1

DCAMKL2 = biological target: T2, DCAMKL2 (Homo sapiens, UniProt Q8N568)
T2 construct: gene DCLK2
In short: as §1

[1] = biological target: EGFR(L747-E749del, A750P) (Homo sapiens, UniProt P00533, A750P/DEL747-749)
In short: as §1

EGFR(T790M) = EGFR(T790M) (Homo sapiens, UniProt P00533, T790M)
In short: as §1

EIF2AK1 = EIF2AK1 (Homo sapiens, UniProt Q9BQI3)
In short: as §1

EPHA8 = EPHA8 (Homo sapiens, UniProt P29322)
In short: as §1

FLT3 = FLT3 (Homo sapiens, UniProt P36888)
In short: as §1

HIPK4 = HIPK4 (Homo sapiens, UniProt Q8NE63)
In short: as §1

KIT(V559D,T670I) = KIT(V559D,T670I) (Homo sapiens, UniProt P10721, T670I/V559D)
In short: as §1

LCK = LCK (Homo sapiens, UniProt P06239)
In short: as §1

LIMK2 = LIMK2 (Homo sapiens, UniProt P53671)
In short: as §1

MYLK = MYLK (Homo sapiens, UniProt Q15746)
In short: as §1

NEK3 = NEK3 (Homo sapiens, UniProt P51956)
In short: as §1

NEK6 = NEK6 (Homo sapiens, UniProt Q9HC98)
In short: as §1

PCTK2 = biological target: T3, PCTK2 (Homo sapiens, UniProt Q00537)
T3 construct: gene CDK17
In short: as §1

PIM2 = PIM2 (Homo sapiens, UniProt Q9P1W9)
In short: as §1

PLK1 = PLK1 (Homo sapiens, UniProt P53350)
In short: as §1

PRKCE = PRKCE (Homo sapiens, UniProt Q02156)
In short: as §1

PRKD2 = PRKD2 (Homo sapiens, UniProt Q9BZL6)
In short: as §1

RIPK4 = RIPK4 (Homo sapiens, UniProt P57078)
In short: as §1

ROCK2 = ROCK2 (Homo sapiens, UniProt O75116)
In short: as §1

SRPK1 = SRPK1 (Homo sapiens, UniProt Q96SB4)
In short: as §1

STK36 = STK36 (Homo sapiens, UniProt Q9NRP7)
In short: as §1

KIT(V559D,T670I), sequence (P10721 whole entry V559D/T670I): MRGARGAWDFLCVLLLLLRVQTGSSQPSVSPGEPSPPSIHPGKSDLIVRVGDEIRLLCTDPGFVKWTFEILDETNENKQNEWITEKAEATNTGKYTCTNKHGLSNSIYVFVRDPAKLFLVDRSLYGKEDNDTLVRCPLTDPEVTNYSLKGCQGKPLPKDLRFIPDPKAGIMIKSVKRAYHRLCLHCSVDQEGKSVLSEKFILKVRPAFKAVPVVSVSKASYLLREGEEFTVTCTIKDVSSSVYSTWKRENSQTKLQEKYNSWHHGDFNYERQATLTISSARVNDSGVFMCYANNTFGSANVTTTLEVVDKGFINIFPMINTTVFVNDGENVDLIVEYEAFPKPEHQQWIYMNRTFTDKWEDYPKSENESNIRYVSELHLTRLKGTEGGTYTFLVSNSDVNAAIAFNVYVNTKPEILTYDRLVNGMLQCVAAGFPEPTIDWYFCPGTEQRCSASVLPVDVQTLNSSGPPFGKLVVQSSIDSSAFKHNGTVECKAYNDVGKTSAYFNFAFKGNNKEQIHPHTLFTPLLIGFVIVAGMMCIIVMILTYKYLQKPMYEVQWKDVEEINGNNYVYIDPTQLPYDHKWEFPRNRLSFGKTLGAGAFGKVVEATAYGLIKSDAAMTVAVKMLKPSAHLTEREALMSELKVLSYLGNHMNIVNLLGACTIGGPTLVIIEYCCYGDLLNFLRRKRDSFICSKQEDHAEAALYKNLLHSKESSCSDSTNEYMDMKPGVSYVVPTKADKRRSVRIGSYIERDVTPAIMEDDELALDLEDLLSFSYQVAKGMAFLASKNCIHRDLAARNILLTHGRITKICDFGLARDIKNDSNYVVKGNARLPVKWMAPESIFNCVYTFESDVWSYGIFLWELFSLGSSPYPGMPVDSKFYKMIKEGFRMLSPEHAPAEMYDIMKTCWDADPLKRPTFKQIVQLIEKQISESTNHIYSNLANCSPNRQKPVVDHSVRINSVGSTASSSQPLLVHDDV
HIPK4, sequence (Q8NE63 whole entry): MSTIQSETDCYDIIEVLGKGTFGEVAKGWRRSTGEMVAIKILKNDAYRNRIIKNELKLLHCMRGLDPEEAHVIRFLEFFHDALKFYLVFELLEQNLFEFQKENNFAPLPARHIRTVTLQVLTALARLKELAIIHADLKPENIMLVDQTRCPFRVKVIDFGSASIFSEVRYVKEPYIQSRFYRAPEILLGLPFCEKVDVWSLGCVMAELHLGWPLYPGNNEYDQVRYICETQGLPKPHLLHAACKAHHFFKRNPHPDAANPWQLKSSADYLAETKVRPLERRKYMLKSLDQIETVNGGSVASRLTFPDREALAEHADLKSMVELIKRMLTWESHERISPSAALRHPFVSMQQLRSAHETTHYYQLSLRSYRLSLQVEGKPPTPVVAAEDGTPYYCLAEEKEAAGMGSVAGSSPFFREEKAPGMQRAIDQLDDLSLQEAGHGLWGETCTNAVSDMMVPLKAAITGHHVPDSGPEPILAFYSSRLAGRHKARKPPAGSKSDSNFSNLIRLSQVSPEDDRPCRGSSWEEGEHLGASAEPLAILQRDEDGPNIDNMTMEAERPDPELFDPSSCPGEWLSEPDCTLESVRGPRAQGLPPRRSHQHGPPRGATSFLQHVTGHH
EIF2AK1, sequence (Q9BQI3 whole entry): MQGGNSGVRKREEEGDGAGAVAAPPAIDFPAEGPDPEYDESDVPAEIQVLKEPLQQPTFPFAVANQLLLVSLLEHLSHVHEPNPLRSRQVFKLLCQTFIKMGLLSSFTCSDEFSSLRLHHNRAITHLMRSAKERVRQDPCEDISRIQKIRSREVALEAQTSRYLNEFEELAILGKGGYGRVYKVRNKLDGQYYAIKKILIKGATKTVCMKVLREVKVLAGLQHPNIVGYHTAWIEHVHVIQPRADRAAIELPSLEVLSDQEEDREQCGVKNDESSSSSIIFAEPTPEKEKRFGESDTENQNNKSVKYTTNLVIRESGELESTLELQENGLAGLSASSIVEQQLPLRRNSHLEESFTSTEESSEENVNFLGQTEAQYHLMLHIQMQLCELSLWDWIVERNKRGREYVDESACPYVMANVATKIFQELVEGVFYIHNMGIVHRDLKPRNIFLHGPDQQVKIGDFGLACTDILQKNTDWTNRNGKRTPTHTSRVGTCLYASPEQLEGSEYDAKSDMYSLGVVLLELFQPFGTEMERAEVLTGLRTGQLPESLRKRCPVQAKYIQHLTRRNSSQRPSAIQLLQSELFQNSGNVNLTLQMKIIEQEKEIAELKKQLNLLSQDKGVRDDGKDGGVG
EPHA8, sequence (P29322 whole entry): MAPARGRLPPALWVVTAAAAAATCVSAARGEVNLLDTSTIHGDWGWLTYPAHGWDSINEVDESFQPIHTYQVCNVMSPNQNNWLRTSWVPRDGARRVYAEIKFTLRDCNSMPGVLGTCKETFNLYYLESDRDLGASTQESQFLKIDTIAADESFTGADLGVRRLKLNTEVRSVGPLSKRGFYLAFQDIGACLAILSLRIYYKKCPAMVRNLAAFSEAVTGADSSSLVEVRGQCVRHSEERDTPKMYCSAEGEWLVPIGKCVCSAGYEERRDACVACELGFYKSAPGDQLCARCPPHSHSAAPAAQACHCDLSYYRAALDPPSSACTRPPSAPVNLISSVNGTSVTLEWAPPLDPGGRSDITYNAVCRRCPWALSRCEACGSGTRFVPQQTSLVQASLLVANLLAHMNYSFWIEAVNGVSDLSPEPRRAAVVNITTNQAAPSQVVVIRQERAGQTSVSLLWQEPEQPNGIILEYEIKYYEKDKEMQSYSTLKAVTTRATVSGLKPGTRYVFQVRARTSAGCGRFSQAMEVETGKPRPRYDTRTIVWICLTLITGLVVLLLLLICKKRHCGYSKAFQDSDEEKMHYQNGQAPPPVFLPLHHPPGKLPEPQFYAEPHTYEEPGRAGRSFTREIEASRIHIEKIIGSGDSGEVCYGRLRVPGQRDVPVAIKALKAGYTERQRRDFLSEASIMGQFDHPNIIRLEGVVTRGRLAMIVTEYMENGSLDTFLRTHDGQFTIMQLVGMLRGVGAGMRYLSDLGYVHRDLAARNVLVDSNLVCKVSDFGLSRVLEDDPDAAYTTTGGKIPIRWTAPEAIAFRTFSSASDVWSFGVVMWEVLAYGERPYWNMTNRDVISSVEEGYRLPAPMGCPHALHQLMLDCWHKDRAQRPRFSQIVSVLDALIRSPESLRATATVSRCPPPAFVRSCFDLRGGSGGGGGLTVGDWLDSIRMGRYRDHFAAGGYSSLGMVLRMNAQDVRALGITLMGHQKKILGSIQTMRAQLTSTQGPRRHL
AURKB, sequence (Q96GD4 whole entry): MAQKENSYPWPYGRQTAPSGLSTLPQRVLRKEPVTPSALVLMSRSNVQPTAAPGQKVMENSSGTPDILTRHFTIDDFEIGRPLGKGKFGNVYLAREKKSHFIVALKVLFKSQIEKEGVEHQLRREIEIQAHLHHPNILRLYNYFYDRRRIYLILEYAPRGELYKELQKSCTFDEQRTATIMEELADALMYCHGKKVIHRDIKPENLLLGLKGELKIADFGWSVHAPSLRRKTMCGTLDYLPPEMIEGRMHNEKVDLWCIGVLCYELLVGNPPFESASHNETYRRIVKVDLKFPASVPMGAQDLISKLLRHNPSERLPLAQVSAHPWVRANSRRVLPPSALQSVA
NEK6, sequence (Q9HC98 whole entry): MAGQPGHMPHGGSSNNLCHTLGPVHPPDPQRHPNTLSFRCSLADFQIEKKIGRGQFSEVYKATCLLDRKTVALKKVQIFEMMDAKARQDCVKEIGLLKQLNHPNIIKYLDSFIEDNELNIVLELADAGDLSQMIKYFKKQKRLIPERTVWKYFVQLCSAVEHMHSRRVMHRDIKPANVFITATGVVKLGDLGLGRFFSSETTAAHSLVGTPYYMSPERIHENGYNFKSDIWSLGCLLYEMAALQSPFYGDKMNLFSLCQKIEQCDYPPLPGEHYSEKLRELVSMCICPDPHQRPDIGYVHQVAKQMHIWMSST
LCK, sequence (P06239 whole entry): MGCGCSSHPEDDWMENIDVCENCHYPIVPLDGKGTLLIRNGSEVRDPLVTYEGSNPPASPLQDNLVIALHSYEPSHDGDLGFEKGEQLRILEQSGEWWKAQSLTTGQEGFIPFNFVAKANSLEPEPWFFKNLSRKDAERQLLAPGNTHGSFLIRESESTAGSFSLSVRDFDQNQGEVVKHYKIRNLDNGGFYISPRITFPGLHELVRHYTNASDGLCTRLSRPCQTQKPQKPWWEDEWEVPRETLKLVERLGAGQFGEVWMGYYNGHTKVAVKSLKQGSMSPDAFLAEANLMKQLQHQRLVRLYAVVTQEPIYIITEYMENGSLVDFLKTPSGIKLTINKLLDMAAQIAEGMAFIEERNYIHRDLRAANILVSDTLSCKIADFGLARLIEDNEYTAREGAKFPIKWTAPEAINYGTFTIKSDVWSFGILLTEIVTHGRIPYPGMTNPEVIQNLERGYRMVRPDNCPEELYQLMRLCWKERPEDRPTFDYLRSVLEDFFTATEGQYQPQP
T3 sequence (Q00537 whole entry): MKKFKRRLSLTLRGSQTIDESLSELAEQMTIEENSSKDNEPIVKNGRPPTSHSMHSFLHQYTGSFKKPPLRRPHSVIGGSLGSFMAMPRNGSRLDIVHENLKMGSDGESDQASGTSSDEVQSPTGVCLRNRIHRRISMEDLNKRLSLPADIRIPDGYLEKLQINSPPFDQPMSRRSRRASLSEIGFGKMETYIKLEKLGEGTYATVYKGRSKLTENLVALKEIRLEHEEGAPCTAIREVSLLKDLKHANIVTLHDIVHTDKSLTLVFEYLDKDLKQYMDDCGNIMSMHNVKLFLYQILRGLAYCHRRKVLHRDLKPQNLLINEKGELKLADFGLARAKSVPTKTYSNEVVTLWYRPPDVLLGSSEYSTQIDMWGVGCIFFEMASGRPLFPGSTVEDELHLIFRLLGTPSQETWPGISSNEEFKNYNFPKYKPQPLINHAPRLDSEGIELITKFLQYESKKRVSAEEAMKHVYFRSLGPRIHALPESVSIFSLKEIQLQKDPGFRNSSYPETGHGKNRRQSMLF

Compound `C=CC(=O)Nc1cc(-n2c(=O)ccc3cnc4ccc(-n5cccn5)cc4c32)ccc1C` [CHMFL-BTK-11] has a remaining binding at 1 µM (AURKB) of 94%, a remaining binding at 1 µM (AXL) of 100% and a remaining binding at 1 µM (CTK) of 65%. It also gave a remaining binding at 1 µM (DCAMKL2) of 100%, a remaining binding at 1 µM [1] of 73% and a remaining binding at 1 µM (EGFR(T790M)) of 58%. For the same compound, the remaining binding at 1 µM (EIF2AK1) was 92%, the remaining binding at 1 µM (EPHA8) was 92% and the remaining binding at 1 µM (FLT3) was 100%. The remaining binding at 1 µM (HIPK4) was 94%, the remaining binding at 1 µM (KIT(V559D,T670I)) was 99% and the remaining binding at 1 µM (LCK) was 100%. The remaining binding at 1 µM (LIMK2) was 100%, the remaining binding at 1 µM (MYLK) was 82% and the remaining binding at 1 µM (NEK3) was 87%. It also gave a remaining binding at 1 µM (NEK6) of 100%, a remaining binding at 1 µM (PCTK2) of 94% and a remaining binding at 1 µM (PIM2) of 100%. The remaining binding at 1 µM (PLK1) was 99%, the remaining binding at 1 µM (PRKCE) was 97% and the remaining binding at 1 µM (PRKD2) was 100%. The remaining binding at 1 µM (RIPK4) was 100%, the remaining binding at 1 µM (ROCK2) was 97% and the remaining binding at 1 µM (SRPK1) was 100%. It also gave a remaining binding at 1 µM (STK36) of 97%.
